ChEMBL document CHEMBL5729305, “Compounds, salts thereof and methods for treatment of diseases” (2022)

Target: 5-hydroxytryptamine receptor 2A (Homo sapiens, UniProt P28223)
Assay: Receptor Selection and Amplification (R-SAT) Assays: R-SAT's were generally performed with 50 ng/well of receptor and 20 ng/well of β-galactosidase plasmid DNA. All receptor constructs used were in the pSI mammalian expression vector (Promega Inc) as described previously. The 5-HT2A receptor gene was amplified by nested PCR (polymerase chain reaction) from brain cDNA using the …
Type: cell-based

Sequence of 5-hydroxytryptamine receptor 2A (P28223 whole entry): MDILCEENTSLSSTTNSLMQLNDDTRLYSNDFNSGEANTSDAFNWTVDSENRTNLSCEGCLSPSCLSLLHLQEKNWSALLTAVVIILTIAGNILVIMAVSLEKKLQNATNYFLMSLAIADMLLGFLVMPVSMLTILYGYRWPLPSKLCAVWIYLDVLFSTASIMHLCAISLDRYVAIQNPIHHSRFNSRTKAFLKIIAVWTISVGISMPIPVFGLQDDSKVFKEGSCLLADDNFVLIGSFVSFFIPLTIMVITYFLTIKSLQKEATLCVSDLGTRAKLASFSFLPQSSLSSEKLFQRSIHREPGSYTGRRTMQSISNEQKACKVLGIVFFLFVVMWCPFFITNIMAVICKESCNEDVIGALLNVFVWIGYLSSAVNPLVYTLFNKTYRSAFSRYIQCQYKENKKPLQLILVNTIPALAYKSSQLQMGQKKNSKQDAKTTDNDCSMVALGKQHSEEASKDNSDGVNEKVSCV

Ki: 0.01 µM
SMILES: CC(C)Oc1ccc(CC(=O)N(Cc2ccc(F)cc2F)[C@@H]2CCN(C)C[C@@H]2F)cc1 (mixture of isomers)
